Format in all cases: functional
Conditions in all cases: read-out: DIZ

Test [1] has as its system Candida albicans. The test can be described thus: Antifungal activity against Candida albicans at 100 ug/ml.
Test [2] concerns Candida albicans. As to the kind of experiment: Antifungal activity against Candida albicans at 200 ug/ml.
In test [3] the test system is Pseudomonas aeruginosa. As to the kind of experiment: Antibacterial activity against Pseudomonas aeruginosa at 100 ug/ml.
In test [4] the test system is Bacillus subtilis. As to the kind of experiment: Antibacterial activity against Bacillus subtilis at 100 ug/ml.
In test [5] the test system is Aspergillus niger. As to the kind of experiment: Antifungal activity against Aspergillus niger at 200 ug/ml.
Test [6] deals with Staphylococcus aureus. The test can be described thus: Antibacterial activity against Staphylococcus aureus at 200 ug/ml.
The test system of test [7] is Staphylococcus aureus. The test can be described thus: Antibacterial activity against Staphylococcus aureus at 100 ug/ml.
Test [8] concerns Pseudomonas aeruginosa. As to the kind of experiment: Antibacterial activity against Pseudomonas aeruginosa at 200 ug/ml.
Test [9] concerns Staphylococcus aureus. As to the kind of experiment: Antibacterial activity against Staphylococcus aureus at 50 ug/ml.
In test [10] the test system is Aspergillus niger. The test can be described thus: Antifungal activity against Aspergillus niger at 100 ug/ml.
Test [11] relates to Escherichia coli. As to the kind of experiment: Antibacterial activity against Escherichia coli at 200 ug/ml.
Test [12] has as its system Pseudomonas aeruginosa. As to the kind of experiment: Antibacterial activity against Pseudomonas aeruginosa at 50 ug/ml.
The subject of test [13] is Bacillus subtilis. The test can be described thus: Antibacterial activity against Bacillus subtilis at 50 ug/ml.
Test [14] has as its system Escherichia coli. The test can be described thus: Antibacterial activity against Escherichia coli at 50 ug/ml.
The subject of test [15] is Escherichia coli. As to the kind of experiment: Antibacterial activity against Escherichia coli at 100 ug/ml.
Test [16] relates to Bacillus subtilis. The test can be described thus: Antibacterial activity against Bacillus subtilis at 200 ug/ml.
Test [17] relates to Candida albicans. As to the kind of experiment: Antifungal activity against Candida albicans at 50 ug/ml.

Turning to `O=C1Nc2ccccc2/C1=N/n1c(Cc2ccccc2)n[nH]c1=S`, the zone of inhibition at 100 µg/mL came to 9 mm in the test on Candida albicans [1]; 16 mm with Pseudomonas aeruginosa [3]; 15 mm in the test on Bacillus subtilis [4]; 16 mm in the test with Staphylococcus aureus [7]; 9 mm in the test on Aspergillus niger [10]; 19 mm in the test on Escherichia coli [15]. Moreover, the zone of inhibition at 200 µg/mL in the test on Candida albicans [2] was 15 mm; in the test on Aspergillus niger [5], 14 mm; in the test on Staphylococcus aureus [6] it was 22 mm; in the test on Pseudomonas aeruginosa [8], 24 mm; in the test with Escherichia coli [11], 23 mm; with Bacillus subtilis [16], 20 mm. The zone of inhibition at 50 µg/mL in the test with Staphylococcus aureus [9] was 10 mm; with Pseudomonas aeruginosa [12], 13 mm; with Bacillus subtilis [13], 9 mm; in the test on Escherichia coli [14], 12 mm.

As to `O=C1Nc2ccc(Br)cc2/C1=N/n1c(Cc2ccccc2)n[nH]c1=S`, the zone of inhibition at 100 µg/mL in the test with Candida albicans [1] was determined as 11 mm; in the test on Pseudomonas aeruginosa [3] it was 15 mm; with Bacillus subtilis [4], 15 mm; in the test with Staphylococcus aureus [7], 12 mm; with Aspergillus niger [10], 10 mm; with Escherichia coli [15], 17 mm. The zone of inhibition at 200 µg/mL was 17 mm with Candida albicans [2]; 14 mm in the test with Aspergillus niger [5]; 20 mm with Staphylococcus aureus [6]; 25 mm in the test with Pseudomonas aeruginosa [8]; 27 mm in the test with Escherichia coli [11]; 20 mm in the test with Bacillus subtilis [16]. Further, the zone of inhibition at 50 µg/mL in the test with Staphylococcus aureus [9] is 9 mm; in the test on Pseudomonas aeruginosa [12], 10 mm; in the test with Bacillus subtilis [13] it was 9 mm; in the test with Escherichia coli [14], 11 mm.

Consider `CCN(CC)CN1C(=O)/C(=N\n2c(Cc3ccccc3)n[nH]c2=S)c2ccccc21`, for which the zone of inhibition at 100 µg/mL in the test on Candida albicans [1] turned out to be 10 mm; in the test on Pseudomonas aeruginosa [3], 13 mm; with Bacillus subtilis [4] it was 13 mm; in the test with Staphylococcus aureus [7], 16 mm; with Aspergillus niger [10], 9 mm; in the test with Escherichia coli [15], 15 mm. Further, the zone of inhibition at 200 µg/mL came to 17 mm with Candida albicans [2]; 13 mm in the test with Aspergillus niger [5]; 23 mm in the test on Staphylococcus aureus [6]; 20 mm in the test on Pseudomonas aeruginosa [8]; 22 mm in the test with Escherichia coli [11]; 20 mm in the test with Bacillus subtilis [16]. Moreover, the zone of inhibition at 50 µg/mL amounted to 11 mm in the test with Staphylococcus aureus [9], 9 mm in the test on Pseudomonas aeruginosa [12], 9 mm in the test with Bacillus subtilis [13] and 9 mm in the test with Escherichia coli [14].

With `O=C1/C(=N\n2c(Cc3ccccc3)n[nH]c2=S)c2cc(Cl)ccc2N1CN1CCCCC1`, the zone of inhibition at 50 µg/mL with Candida albicans [17] was 9 mm; with Staphylococcus aureus [9] it was 9 mm; with Pseudomonas aeruginosa [12], 10 mm; in the test on Bacillus subtilis [13] it was 9 mm; in the test on Escherichia coli [14], 10 mm. The zone of inhibition at 100 µg/mL with Candida albicans [1] is 11 mm; in the test on Pseudomonas aeruginosa [3], 15 mm; in the test with Bacillus subtilis [4], 13 mm; with Staphylococcus aureus [7] it was 12 mm; in the test on Aspergillus niger [10], 9 mm; with Escherichia coli [15], 16 mm. Also, the zone of inhibition at 200 µg/mL is 16 mm with Candida albicans [2]; 15 mm with Aspergillus niger [5]; 20 mm with Staphylococcus aureus [6]; 21 mm in the test on Pseudomonas aeruginosa [8]; 25 mm in the test with Escherichia coli [11]; 22 mm in the test on Bacillus subtilis [16].
